Consider one compound from US6916846B2, “Coumermycin analogs as chemical dimerizers of chimeric proteins” (Merck & Co. Inc., priority 2000, dated 2005).

Test [1] relates to STAT5b-GyrB fusion proteins. The experiment in a line: Inhibition assay in BAF cells, all wells with 90 nM coumermycin. The test is classed as cell-based, murine. On the set-up: unit not given here. The note with it: Table 6. As for the experimental part:
An inhibition assay was also conducted for Compounds 1 and 2. For this assay, all wells contained a DMSO concentration of 90 nM of coumermycin. Compounds 1 and 2 were added at concentrations of 1.8 μM, 900 nM, 90 nM and 9 nM. The conditions of the assay were identical to those referenced early in this example, except that one-third of the amount of 3-H thymidine was used.

Test [2] deals with STAT5b-GyrB fusion proteins. The note with it: for Prolif.: Table 4, Example 3; for Prolif. (cpm): Table 7, Example 5.
Method: To evaluate the effectiveness of the analogs of the present invention to act as chemical dimerizers of chimeric proteins, a BAF cell proliferation assay was performed.
BAF Cell Proliferation Assay
We have transfected BAF Cells with the human IL2 Receptor β chain. These transfected cells respond to human IL-2 by increasing their rate of cellular proliferation. This can be assayed by measuring the amount of tritiated thymidine that these cells incorporate into their DNA. One of the signaling proteins activated by IL-2 is the transcription factor STAT5b. This activation of STAT5b is responsible, in part, for the growth-promoting effects of IL-2.
STAT5b is activated by dimerization, an event that is dependent on its phosphorylation and which requires interaction of STAT5b with a ligand bound activated receptor. We can mimic this activation of STAT5b by transfecting BAF cells with a fusion protein consisting of the GyrB domain (the24 kDa amino-terminal fragment of bacterial DNA gyrase, amino acids 2-220) fused to the carboxy-terminus of STAT5b. Addition of the symmetrically dimeric antibiotic coumermycin artificially forces the dimerization of STAT5b-GyrB fusion proteins and results in an increased rate of cell growth that can be measured by the cell's ability to incorporate thymidine. This provides an assay to determine the ability of coumermycin analogs to promote dimerization of STAT5b-GyrB fusion proteins.
The assay is run as follows: BAF cells transfected with the human IL-2 receptor β chain and STAT5b-GyrB are washed twice in phosphate-buffered saline. They are then re-suspended in BAF cell media that lacks IL-2 and placed in a 96-well plate. Increasing amounts of coumermycin, or coumermycin analogs are then added to different wells in a 96-well plate and the cells are incubated overnight. Twenty-four hours later the cell media is spiked with tritiated thymidine and the cells are incubated for an additional 16 hours. The cells are subsequently harvested with a Wallac cell harvester and the amount of tritiated thymidine incorporated is measured using a β scintillation counter.
Set up for BAF proliferation assay was as follows: Spin down cells and wash one time in PBS. Resuspended in BAF cell media without cytokine at 2×10^5 cells/ml. added 100 μl/well or 2×10^4 cells. The compounds were prepared at 2 mg/ml (equivalent to 1.8 nM±5%). Plates were set up so that each condition equaled 1 row of 12 (n=number of wells/row=12). DMSO being utilized as an initial control Compound 5 was prepared in concentrations of 1.6, 16, 163, 450, and 900 nM, and 1.8 μM in DMSO, and as a second control, IL-2 growth factor was added to coumermycin. Two novenamine anologs, Comparative Compounds (CCmpd) 1 and 2, below were also use in this example as control.
The compounds were re-suspended in dimethylsulfoxide (DMSO) at a concentration of 2 mg/ml. […] Next, the cells were washed 2 times with PBS. The re-suspended cells were present at a concentration of 1×10^5 cells /ml in BAF media (RPMI, 10% FCS (fetal calf serum), 1% NEAA (non-essential amino acid), 1% L-G-lu, P/S and Hepes) without IL-2, added 100 μl to well (equal to 1×10^4 cells/well).
The compounds were prepared in as follows: DMSO was used as a control; each of the 5 compounds were combined with DMSO at concentrations of 1.8 μM, 900 nM, 450 nM, 90 nM 9 nM, and 900 nM. As a second control, coumermycin in IL-2 was utilized. Each solution at the aforementioned concentration condition, along with BAF cells, was placed in 1 row (12 wells) of a 96 well plate. Thereafter, 100 μL of compound (twice the concentration) was added to the wells.

SMILES strings stand for the structures. Where two headings read alike, the source gives them in different places.

In the case of `COC1C(OC(=O)c2ccc(C)[nH]2)C(O)C(Oc2ccc3c(O)c(NC(=O)c4cc(=O)cc(C(=O)Nc5c(O)c6ccc(OC7OC(C)(C)C(OC)C(OC(=O)c8ccc(C)[nH]8)C7O)c(C)c6oc5=O)o4)c(=O)oc3c2C)OC1(C)C` (stereo not shown) [Cmpd 1], the Prolif. is given as 7713 in test [1] (Cou. 90 nM plus inhibitor 9 nM); 7683 in test [1] (Cou. 90 nM plus inhibitor 90 nM); 7597 in test [1] (Cou. 90 nM plus inhibitor 900 nM); 7271 in test [1] (Cou. 90 nM plus inhibitor 1800 nM); 7156 in test [2] (900 pM); 7653 in test [2] (9 nM). Further, the Prolif. in test [2] (90 nM) is listed as 7487; in test [2] (450 nM) it was 7209; in test [2] (900 nM) it was 7092; in test [2] (1.8 μM) it was 6397. In addition, the “Prolif. (cpm)” value in test [2] (900 pM) was determined as 31865 cpm; in test [2] (9 nM), 34279 cpm; in test [2] (90 nM) it was 33933 cpm; in test [2] (450 nM), 35212 cpm; in test [2] (900 nM), 33301 cpm; in test [2] (1.8 μM), 31029 cpm.
